This is an account of results in US8785486B2, “Imidazo[1,2-A]pyridine derivatives and their use as positive allosteric modulators of mGluR2 receptors” (Janssen Pharmaceuticals, Inc., priority 2007, dated 2014).

One data set deals with T1, human mGluR2 receptor (Homo sapiens, UniProt Q14416).
T1 construct: expressed in transfected cells; host or cells: CHO cells
The data set is described as follows: [35S]GTPγS binding assay (PAM assay) using membranes from cells transfected with the human mGluR2 receptor. The data set is classed as biochemical. The conditions noted are these: membranes of CHO cells with human mGluR2, glutamate at predetermined EC25 concentration, averages of duplicate values of 11-concentration response curves; for EC50: read-out: GTPγS - hR2 PAM pEC50 (converted). The method, then: The [^35S]GTPγS binding assay is a functional membrane-based assay used to study G-protein coupled receptor (GPCR) function whereby incorporation of a non-hydrolysable form of GTP, [^35S]GTPγS (guanosine 5′-triphosphate, labelled with […] ^35S), is measured.
CHO-cells were cultured to pre-confluence and stimulated with 5 mM butyrate for 24 hours, prior to washing in PBS, and then collection by scraping in homogenisation buffer (50 mM Tris-HCl buffer, pH 7.4, 4° C.). Cell lysates were homogenized briefly (15 s) using an ultra-turrax homogenizer. The homogenate was centrifuged at 23 500×g for 10 minutes and the supernatant discarded. The pellet was resuspended in 5 mM Tris-HCl, pH 7.4 and centrifuged again (30 000×g, 20 min, 4° C.). The final pellet was resuspended in 50 mM HEPES, pH 7.4 and stored at −80° C. in appropriate aliquots before use. Protein concentration was determined by the Bradford method (Bio-Rad, USA) with bovine serum albumin as standard.
Measurement of mGluR2 positive allosteric modulatory activity of test compounds in membranes containing human mGluR2 was performed using frozen membranes that were thawed and briefly homogenised prior to pre-incubation in 96-well microplates (15 μg/assay well, 30 minutes, 30° C.) in assay buffer (50 mM HEPES pH 7.4, 100 mM NaCl, 3 mM MgCl2, 50 μM GDP, 10 μg/ml saponin,) with increasing concentrations of positive allosteric modulator (from 0.3 nM to 50 μM) and either a minimal pre-determined concentration of glutamate (PAM assay), or no added glutamate. […] After addition of [^35S]GTPγS (0.1 nM, f.c.) to achieve a total reaction volume of 200 μl, microplates were shaken briefly and further incubated to allow [^35S]GTPγS incorporation on activation (30 minutes, 30° C.). The reaction was stopped by rapid vacuum filtration over glass-fibre filter plates (Unifilter 96-well GF/B filter plates, Perkin-Elmer, Downers Grove, USA) microplate using a 96-well plate cell harvester (Filtermate, Perkin-Elmer, USA), and then by washing three times with 300 μl of ice-cold wash buffer (Na2PO4.2H2O 10 mM, NaH2PO4.H2O 10 mM, pH=7.4). Filters were then air-dried, and 40 μl of liquid scintillation cocktail (Microscint-O) was added to each well, and membrane-bound [^35S]GTPγS was measured in a 96-well scintillation plate reader (Top-Count, Perkin-Elmer, USA). Non-specific [^35S]GTPγS binding is determined in the presence of cold 10 μM GTP. Each curve was performed at least once using duplicate sample per data point and at 11 concentrations.
The concentration-response curves of representative compounds of the present invention in the presence of added EC25 of mGluR2 agonist glutamate to determine positive allosteric modulation (PAM), were generated using the Prism GraphPad software (Graph Pad Inc, San Diego, USA). The curves were fitted to a four-parameter logistic equation (Y=Bottom+(Top-Bottom)/(1+10^((Log EC50−X)*Hill Slope) allowing determination of EC50 values. The EC50 is the concentration of a compound that causes a half-maximal potentiation of the glutamate response. This is calculated by subtracting the maximal responses of glutamate in presence of a fully saturating concentration of a positive allosteric modulator from the response of glutamate in absence of a positive allosteric modulator. The concentration producing the half-maximal effect is then calculated as EC50

T1 sequence (Q14416 19-872): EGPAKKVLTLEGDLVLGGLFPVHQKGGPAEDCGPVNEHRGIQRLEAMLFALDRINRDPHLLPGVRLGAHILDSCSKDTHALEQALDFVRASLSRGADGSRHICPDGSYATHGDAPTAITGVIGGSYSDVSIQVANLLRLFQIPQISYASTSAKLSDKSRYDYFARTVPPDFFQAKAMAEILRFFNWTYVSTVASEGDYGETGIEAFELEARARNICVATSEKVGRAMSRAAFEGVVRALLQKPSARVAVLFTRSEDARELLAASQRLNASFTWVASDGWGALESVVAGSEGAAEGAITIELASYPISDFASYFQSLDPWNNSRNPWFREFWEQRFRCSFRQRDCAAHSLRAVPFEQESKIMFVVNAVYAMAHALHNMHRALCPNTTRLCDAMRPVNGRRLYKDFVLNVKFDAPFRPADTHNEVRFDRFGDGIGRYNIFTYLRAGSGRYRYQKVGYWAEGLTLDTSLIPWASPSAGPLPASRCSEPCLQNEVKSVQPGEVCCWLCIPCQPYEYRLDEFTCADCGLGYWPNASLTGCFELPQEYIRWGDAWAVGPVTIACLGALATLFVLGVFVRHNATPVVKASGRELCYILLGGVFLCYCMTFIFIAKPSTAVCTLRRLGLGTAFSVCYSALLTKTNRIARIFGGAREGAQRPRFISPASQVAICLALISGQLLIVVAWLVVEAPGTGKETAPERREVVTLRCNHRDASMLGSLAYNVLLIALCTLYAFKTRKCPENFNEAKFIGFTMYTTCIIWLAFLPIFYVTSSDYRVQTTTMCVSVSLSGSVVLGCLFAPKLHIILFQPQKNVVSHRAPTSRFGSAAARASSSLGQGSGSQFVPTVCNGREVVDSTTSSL

In the case of `CC(C)(O)c1ccc(C2CCN(c3ccn4c(CC(F)(F)F)cnc4c3C#N)CC2)cc1` [Example 54], the melting point is 155.4 °C. Also, the EC50 at human mGluR2 receptor was 240 nM.
`N#Cc1c(N2CCC3(CC2)OCc2ccccc23)ccn2c(CC(F)(F)F)cnc12` [Example 58] had a melting point of 212.9 °C. Further, the EC50 on human mGluR2 receptor was 97.7 nM.
As to `N#Cc1c(N2CCC(O)(c3ccccc3F)CC2)ccn2c(CC(F)(F)F)cnc12` [Example 62], the melting point came to 289.8 °C. The EC50 on human mGluR2 receptor was 166 nM.
In turn, `CC(C)(O)c1ccc(C2CCN(c3ccn4c(CC(F)(F)F)cnc4c3Cl)CC2)cc1` [Example 63] gave a melting point of 189.3 °C. The EC50 at human mGluR2 receptor was 389 nM.
`Cc1c(N2CCC(c3ccccc3)CC2)ccn2c(CC(F)(F)F)cnc12` [Example 64] had a melting point of 213.9 °C. Also, the EC50 at human mGluR2 receptor was 1550 nM.
The molecule `CC(C)(O)c1ccccc1C1CCN(c2ccn3c(CC(F)(F)F)cnc3c2Cl)CC1` [Example 65, 2-(2-{1-[8-Chloro-3-(2,2,2-trifluoro-ethyl)-imidazo[1,2-a]pyridin-7-yl]-piperidin-4-yl}-phenyl)-propan-2-ol] returned a melting point of 234.7 °C. For the same molecule, the EC50 at human mGluR2 receptor is 178 nM.
`FC(F)(F)Cc1cnc2c(Cl)c(N3CCC4(CC3)OCc3ccccc34)ccn12` [Example 66] returned a melting point of 174.4 °C. For the same molecule, the EC50 at human mGluR2 receptor is 282 nM.
`CC(C)(O)c1ccccc1C1CCN(c2ccn3c(CC(F)(F)F)cnc3c2C#N)CC1` [Example 67, 7-{4-[2-(1-Hydroxy-1-methyl-ethyl)-phenyl]-piperidin-1-yl}-3-(2,2,2-trifluoro-ethyl)-imidazo[1,2-a]pyridine-8-carbonitrile] came in with a melting point of 227.5 °C. Moreover, the EC50 on human mGluR2 receptor was 145 nM.
Molecule `N#Cc1c(N2CCC(F)(c3ccccc3)CC2)ccn2c(CC(F)(F)F)cnc12` [Example 68, 7-(4-Fluoro-4-phenyl-piperidin-1-yl)-3-(2,2,2-trifluoro-ethyl)-imidazo[1,2-a]pyridine-8-carbonitrile] displayed a melting point of 214 °C. Also, the EC50 at human mGluR2 receptor is 93.3 nM.
`N#Cc1c(-c2ccc(Sc3ccccc3)cc2)ccn2c(CC(F)(F)F)cnc12` [Example 71] had a melting point of 195.6 °C. The EC50 on human mGluR2 receptor is 182 nM.
With `Cc1cc(Oc2ccc(-c3ccn4c(CCCC(F)(F)F)cnc4c3C#N)cc2F)ccn1` [Example 73], the melting point came to 234.1 °C. Besides, the EC50 at human mGluR2 receptor is 1050 nM.
For the molecule `N#Cc1c(-c2ccc(Oc3ccc(F)cc3)cc2)ccn2c(CC(F)(F)F)cnc12` [Example 74], the melting point is 163 °C. The EC50 at human mGluR2 receptor was 170 nM.
The like results for `Cc1cc(Oc2ccc(-c3ccn4c(CCC5CC5)cnc4c3C#N)cc2F)ccn1` [Example 75] were, in that order, 277.2 °C and 372 nM.
Molecule `N#Cc1c(-c2ccc(Oc3ccccc3F)cc2)ccn2c(CC(F)(F)F)cnc12` [Example 77] came in with a melting point of 177.9 °C. The EC50 at human mGluR2 receptor is 105 nM.
With `N#Cc1c(-c2ccc(Oc3cccc(F)c3)cc2)ccn2c(CC(F)(F)F)cnc12` [Example 78], the melting point came to 176 °C. Moreover, at human mGluR2 receptor, the EC50 is 219 nM.
`N#Cc1c(-c2ccc(C(F)c3ccccc3)cc2)ccn2c(CC(F)(F)F)cnc12` (centres unmarked) [Example 79] gave a melting point of 173.4 °C. The EC50 on human mGluR2 receptor was 257 nM.
As to `N#Cc1c(-c2ccc(Oc3ccccc3)cc2)ccn2c(CC(F)(F)F)cnc12` [Example 80], the melting point came to 174.3 °C. In addition, the “GTPγS - hR2 PAM pEC50” value at human mGluR2 receptor is on record as 6.73.
In turn, `CC(O)(c1ccccc1)c1ccc(-c2ccn3c(CC(F)(F)F)cnc3c2C#N)cc1` (centres unmarked) [Example 81] showed a melting point of 102.7 °C. On human mGluR2 receptor, the EC50 is 525 nM.
With `CC(C)(O)c1ccc(Oc2ccc(-c3ccn4c(CC(F)(F)F)cnc4c3C#N)cc2)cc1` [Example 82], the melting point came to 143.2 °C. On human mGluR2 receptor, the EC50 was 44.7 nM.
